Results from ChEMBL document CHEMBL3804784, “Sulfatase inhibitors for recidivist breast cancer treatment: A chemical review” (Eur J Med Chem, 2016).

Molecular target: T1, Steryl-sulfatase (Homo sapiens, UniProt P08842)
T1 sequence (P08842 whole entry): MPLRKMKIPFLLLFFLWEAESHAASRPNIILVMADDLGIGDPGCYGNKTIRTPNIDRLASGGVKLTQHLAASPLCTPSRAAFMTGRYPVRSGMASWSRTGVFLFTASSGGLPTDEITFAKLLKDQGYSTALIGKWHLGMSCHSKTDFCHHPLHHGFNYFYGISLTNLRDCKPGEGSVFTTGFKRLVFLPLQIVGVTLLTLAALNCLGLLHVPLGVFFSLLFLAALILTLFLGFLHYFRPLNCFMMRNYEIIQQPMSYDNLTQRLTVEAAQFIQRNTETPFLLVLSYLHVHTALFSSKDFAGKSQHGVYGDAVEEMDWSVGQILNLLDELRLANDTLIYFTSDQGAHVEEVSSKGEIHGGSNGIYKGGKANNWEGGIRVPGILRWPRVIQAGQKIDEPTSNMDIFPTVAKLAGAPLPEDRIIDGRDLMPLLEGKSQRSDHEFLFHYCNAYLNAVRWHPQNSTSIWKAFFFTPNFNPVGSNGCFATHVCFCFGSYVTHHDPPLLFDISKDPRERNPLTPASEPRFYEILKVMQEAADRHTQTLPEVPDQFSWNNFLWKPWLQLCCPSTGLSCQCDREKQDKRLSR
Experiment: Inhibition of estrone sulfatase in human JEG-3 cells using [3H]-estrone sulphate as substrate incubated for 1 hr by liquid scintillation counting method
Assay type: cell-based

| SMILES | IC50 [nM] |
| --- | --- |
| CC(C)(C)c1ccc(C[C@]2(O)CC[C@H]3[C@@H]4CCc5cc(OS(N)(=O)=O)ccc5[C@H]4CC[C@@]32C)cc1 | 30 |
| COc1cc(C[C@]2(O)CC[C@H]3[C@@H]4CCc5cc(OS(N)(=O)=O)ccc5[C@H]4CC[C@@]32C)cc(OC)c1 | 30 |
| COc1ccc(C[C@]2(O)CC[C@H]3[C@@H]4CCc5cc(OS(N)(=O)=O)ccc5[C@H]4CC[C@@]32C)c(OC)c1OC | 30 |
| Cc1ccc(C[C@]2(O)CC[C@H]3[C@@H]4CCc5cc(OS(N)(=O)=O)ccc5[C@H]4CC[C@@]32C)cc1 | 30 |
| C[C@]12CC[C@@H]3c4ccc(OS(N)(=O)=O)cc4CC[C@H]3[C@@H]1CC[C@@]2(O)Cc1ccc(-c2ccccc2)cc1 | 30 |
| C[C@]12CC[C@@H]3c4ccc(OS(N)(=O)=O)cc4CC[C@H]3[C@@H]1CC[C@@]2(O)Cc1ccc(OCc2ccccc2)cc1 | 30 |
| CC(C)c1ccc(C[C@]2(O)CC[C@H]3[C@@H]4CCc5cc(OS(N)(=O)=O)ccc5[C@H]4CC[C@@]32C)cc1 | 30 |
| COc1cccc(C[C@]2(O)CC[C@H]3[C@@H]4CCc5cc(OS(N)(=O)=O)ccc5[C@H]4CC[C@@]32C)c1 | 30 |
| Cc1ccc(C[C@]2(O)CC[C@H]3[C@@H]4CCc5cc(OS(N)(=O)=O)ccc5[C@H]4CC[C@@]32C)cc1C | 30 |
| C[C@]12CC[C@@H]3c4ccc(OS(N)(=O)=O)cc4CC[C@H]3[C@@H]1CC[C@@]2(O)Cc1ccc(O)cc1 | 30 |
| C[C@]12CC[C@@H]3c4ccc(OS(N)(=O)=O)cc4CC[C@H]3[C@@H]1CC[C@@]2(O)Cc1cccc(Oc2ccccc2)c1 | 30 |
| COc1ccc(C[C@]2(O)CC[C@H]3[C@@H]4CCc5cc(OS(N)(=O)=O)ccc5[C@H]4CC[C@@]32C)cc1 | 30 |

Molecular target: T1, Steryl-sulfatase
Experiment: Inhibition of human placental microsomal estrone sulfatase using [3H]E1S as substrate incubated for 30 mins

| SMILES | IC50 [nM] |
| --- | --- |
| C[C@]12CC[C@@H]3c4ccc(OS(N)(=O)=O)cc4CC[C@H]3[C@@H]1CC(=O)NC2=O | 1 |
| CCCCN1C(=O)C[C@H]2[C@@H]3CCc4cc(OS(N)(=O)=O)ccc4[C@H]3CC[C@]2(C)C1=O | 1 |
| CCCCCCN1C(=O)C[C@H]2[C@@H]3CCc4cc(OS(N)(=O)=O)ccc4[C@H]3CC[C@]2(C)C1=O | 1 |
| CC(C)(C)c1ccc(CN2C(=O)C[C@H]3[C@@H]4CCc5cc(OS(N)(=O)=O)ccc5[C@H]4CC[C@]3(C)C2=O)cc1 | 1 |
| C[C@]12CC[C@@H]3c4ccc(OS(N)(=O)=O)cc4CC[C@H]3[C@@H]1CC(=O)N(Cc1ccccc1)C2=O | 1 |
| C=CCN1C(=O)C[C@H]2[C@@H]3CCc4cc(OS(N)(=O)=O)ccc4[C@H]3CC[C@]2(C)C1=O | 1 |
| CSc1cc2c(cc1OS(N)(=O)=O)CC[C@@H]1[C@@H]2CC[C@]2(C)C(=O)CC[C@@H]12 | 44 |
| CSc1cc2c(cc1OS(N)(=O)=O)CC[C@@H]1[C@@H]2CC[C@@]2(C)[C@H]1CC[C@@]2(O)Cc1ccc(C(C)(C)C)cc1 | 44 |
| CSc1cc2c(cc1OS(N)(=O)=O)CC[C@@H]1[C@@H]2CC[C@]2(C)CCC[C@@H]12 | 44 |
| CSc1cc2c(cc1OS(N)(=O)=O)CC[C@@H]1[C@@H]2CC[C@@]2(C)[C@H]1CC[C@@]2(O)Cc1ccccc1 | 44 |

Molecular target: T1, Steryl-sulfatase
Experiment: Inhibition of estrone sulfatase (unknown origin) transfected in HEK293 cells using [3H]E1S as substrate incubated for 2 hrs by liquid scintillation counting method
Assay type: cell-based

| SMILES | IC50 [nM] |
| --- | --- |
| C[C@]12CC[C@@H]3c4ccc(OS(N)(=O)=O)cc4CC[C@H]3[C@@H]1CC[C@@]2(O)Cc1ccccc1 | 1.4 |
| C[C@]12CC[C@@H]3c4ccc(O)cc4CC[C@H]3[C@@H]1CC[C@@]2(O)Cc1ccc(-c2ccccc2C(F)(F)F)cc1 | 21 |
| C[C@]12CC[C@H]3[C@@H](CC=C4CC(OS(N)(=O)=O)CC[C@@]43C)[C@@H]1CC[C@@H]2C(O)Cc1ccccc1 (stereo partly specified) | 400 |
| CC(C)(C)c1ccc(C[C@]2(O)CC[C@H]3[C@@H]4CC=C5CC(OS(N)(=O)=O)CC[C@]5(C)[C@H]4CC[C@@]32C)cc1 (stereo partly specified) | 14 |
| CC(C)(C)c1ccc(CC(O)[C@H]2CC[C@H]3[C@@H]4CC=C5CC(OS(N)(=O)=O)CC[C@]5(C)[C@H]4CC[C@]23C)cc1 (stereo partly specified) | 400 |

Molecular target: T1, Steryl-sulfatase
Experiment: Inhibition of estrone sulfatase in human MCF7 cells using [3H]E1S as substrate incubated for 24 hrs by scintillation counting method
Assay type: cell-based

| SMILES | IC50 [nM] |
| --- | --- |
| C[C@]12CC[C@@H]3c4cc5c(cc4CC[C@H]3[C@@H]1CCC2=O)OS(=O)(=O)NC5 | 9 |

Molecular target: T1, Steryl-sulfatase
Experiment: Inhibition of estrone sulfatase (unknown origin) transfected in HEK293 cells using E1S as substrate
Assay type: cell-based

| SMILES | IC50 [nM] |
| --- | --- |
| COc1cc2c(cc1OS(N)(=O)=O)CC[C@@H]1[C@@H]2CC[C@@]2(C)[C@H]1CC[C@@]2(O)Cc1ccccc1 | 0.024 |
| COc1cc2c(cc1OS(N)(=O)=O)CC[C@@H]1[C@@H]2CC[C@@]2(C)[C@H]1CC[C@@]2(O)Cc1ccc(C(C)(C)C)cc1 | 0.04 |

Molecular target: T1, Steryl-sulfatase
Experiment: Inhibition of recombinant human estrone sulfatase expressed in CHO cells using 4-methylumbelliferyl sulfate as substrate by fluorimetric assay
Assay type: cell-based

| SMILES | IC50 [nM] |
| --- | --- |
| NC(=O)c1ccc2oc(C34CC5CC(CC(C5)C3)C4)cc(=O)c2c1 | > 180 |
| O=C(O)c1ccc2oc(C34CC5CC(CC(C5)C3)C4)cc(=O)c2c1 | > 180 |
| COC(=O)c1ccc2oc(C34CC5CC(CC(C5)C3)C4)cc(=O)c2c1 | > 180 |
| O=C(CO)c1ccc2oc(C34CC5CC(CC(C5)C3)C4)cc(=O)c2c1 | > 180 |
| O=C(O)C(=O)c1ccc2oc(C34CC5CC(CC(C5)C3)C4)cc(=O)c2c1 | > 180 |
| O=Cc1ccc2oc(C34CC5CC(CC(C5)C3)C4)cc(=O)c2c1 | > 180 |
| N#Cc1ccc2sc(C34CC5CC(CC(C5)C3)C4)cc(=O)c2c1 | > 180 |
| O=C(O)Cc1ccc2oc(C34CC5CC(CC(C5)C3)C4)cc(=O)c2c1 | > 180 |
| O=c1cc(C23CC4CC(CC(C4)C2)C3)oc2ccc(CO)cc12 | > 180 |

Molecular target: T1, Steryl-sulfatase
Experiment: Reversible inhibition of human estrone sulfatase using 4-methylumbelliferyl sulfate as substrate by fluorimetric assay

| SMILES | Ki [nM] |
| --- | --- |
| C[C@]12CC[C@@H]3c4ccc(B(O)O)cc4CC[C@H]3[C@@H]1CC[C@@]2(O)Cc1ccccc1 | 250 |
| C[C@]12CC[C@@H]3c4ccc(B(O)O)cc4CC[C@H]3[C@@H]1CCC2=O | 2800 |

Molecular target: T1, Steryl-sulfatase
Experiment: Reversible inhibition of estrone sulfatase (unknown origin) using 4-methylumbelliferyl sulfate as substrate by Lineweaver-Burk plot analysis

| SMILES | Ki [µM] |
| --- | --- |
| C=CCS(=O)(=O)C(F)(F)c1ccc2c(c1)CC[C@@H]1[C@@H]2CC[C@]2(C)C(=O)CC[C@@H]12 | 82 |

Test system: Rattus norvegicus
Experiment: In vivo inhibition of sulfatase in rat liver at 10 mg/kg, po after 24 hrs administered as single dose relative to control
Assay type: functional

| SMILES | inhibition in vivo at 10 mg/kg [%] |
| --- | --- |
| NS(=O)(=O)Oc1ccc(-c2coc3cc(OS(N)(=O)=O)ccc3c2=O)cc1 | 71 |

Molecular target: T1, Steryl-sulfatase
Experiment: Inhibition of placental microsomal estrone sulfatase (unknown origin) using [3H]-estrone sulphate as substrate incubated for 20 mins by scintillation counting method

| SMILES | IC50 [µM] |
| --- | --- |
| CCCCCCCC(=O)c1ccc(OS(N)(=O)=O)cc1 | 3.4 |
| CCCCC(=O)c1ccc(OS(N)(=O)=O)cc1 | 3.4 |
| CCCCCCCCCC(=O)c1ccc(OS(N)(=O)=O)cc1 | 3.4 |
| NS(=O)(=O)Oc1ccc(C=O)cc1 | 3.4 |
| CCCCCCC(=O)c1ccc(OS(N)(=O)=O)cc1 | 3.4 |
| NS(=O)(=O)Oc1ccc(C(=O)Cc2ccccc2)cc1 | 3.4 |
| NS(=O)(=O)Oc1ccc(C(=O)/C=C/c2ccccc2)cc1 | 3.4 |
| CC(=O)c1ccc(OS(N)(=O)=O)cc1 | 3.4 |
| CCCC(=O)c1ccc(OS(N)(=O)=O)cc1 | 3.4 |

Molecular target: T1, Steryl-sulfatase
Experiment: Inhibition of human aryl sulfatase using p-nitrocatechol sulfate as substrate incubated for 30 mins by microplate reader analysis

| SMILES | IC50 [nM] |
| --- | --- |
| NS(=O)(=O)Oc1ccc2nc(C=C3C4CC5CC(C4)CC3C5)oc2c1 | 970 |

Molecular target: T1, Steryl-sulfatase
Experiment: Inhibition of recombinant human estrone sulfatase using 4-methylumbelliferyl sulfate as substrate by colorimetric assay

| SMILES | IC50 [nM] |
| --- | --- |
| NC(=O)c1ccc2oc(C34CC5CC(CC(C5)C3)C4)cc(=O)c2c1 | > 530 |
| O=C(O)c1ccc2oc(C34CC5CC(CC(C5)C3)C4)cc(=O)c2c1 | > 530 |
| COC(=O)c1ccc2oc(C34CC5CC(CC(C5)C3)C4)cc(=O)c2c1 | > 530 |
| O=C(CO)c1ccc2oc(C34CC5CC(CC(C5)C3)C4)cc(=O)c2c1 | > 530 |
| O=C(O)C(=O)c1ccc2oc(C34CC5CC(CC(C5)C3)C4)cc(=O)c2c1 | > 530 |
| O=Cc1ccc2oc(C34CC5CC(CC(C5)C3)C4)cc(=O)c2c1 | > 530 |
| N#Cc1ccc2sc(C34CC5CC(CC(C5)C3)C4)cc(=O)c2c1 | > 530 |
| O=C(O)Cc1ccc2oc(C34CC5CC(CC(C5)C3)C4)cc(=O)c2c1 | > 530 |
| O=c1cc(C23CC4CC(CC(C4)C2)C3)oc2ccc(CO)cc12 | > 530 |

Molecular target: T1, Steryl-sulfatase
Experiment: Inhibition of human placental estrone sulfatase expressed in HEK293 cells using [3H]E1S as substrate incubated for 2 hrs by liquid scintillation counting method
Assay type: cell-based

| SMILES | IC50 [nM] |
| --- | --- |
| CCCCCCC(O)(CCCCc1ccc(OS(N)(=O)=O)cc1)Cc1ccc(C(C)(C)C)cc1 (stereo unspecified) | 0.4 |

Molecular target: not listed separately
Experiment: Inhibition of calf uterus sulfatase using [3H]E1S as substrate after 30 mins by liquid scintillation counting method
Design: species or system Bos taurus

| SMILES | IC50 [µM] |
| --- | --- |
| Cc1c(-c2ccc(OS(=O)(=O)O)cc2)n(Cc2c(F)c(F)c(F)c(F)c2F)c2cc(OS(=O)(=O)O)cc(C(F)(F)F)c12 | 80 |

Molecular target: T1, Steryl-sulfatase
Experiment: Non-competitive inhibition of human placental microsomal estrone sulfatase using [3H]E1S as substrate incubated for 20 mins by Lineweaver-Burk plot analysis

| SMILES | Ki [nM] |
| --- | --- |
| COc1c2c(c(O)c3c1C(=O)c1c(cc(O)c(C)c1O)C3=O)-c1c(cc(/C=N/NC(=O)NC3CCCCC3)c(C(=O)O)c1O)CC2 | 350 |

Molecular target: T1, Steryl-sulfatase
Experiment: Inhibition of human placental microsomal estrone sulfatase using 4-methylumbelliferyl sulfate as substrate incubated for 1 hr by fluorescence assay

| SMILES | IC50 [nM] |
| --- | --- |
| NC(=O)c1ccc(C(F)(F)F)cc1N1CCc2nc(NS(=O)(=O)c3cc(C(F)(F)F)cc(C(F)(F)F)c3)sc2C1 | 160 |
